Measurements taken from patent US20050222041A1, “Ncam binding compounds” (ENKAM Pharmaceuticals A/S, priority 2001, published 2005).
Values joined by “and” are separate entries in the source; they are usually repeats but may differ in a detail not shown here. Equal values may be shown once. Read-outs that look alike come from different tables or passages of the source. Ends that are not written are not given here.

Key:
[1] = test system: NBP10-induced neurite outgrowth; assay: Inhibition of NBP10d-induced neurite outgrowth by inhibitors of NCAM-dependent signal transduction; assay type: cell-based, rat
hippocampal cells = assay: Cell aggregation in primary hippocampal aggregate cultures; assay type: cell-based, rat; conditions: 24 h
Procedure: A variety of suitable compounds have been discussed above. To test the function of the NCAM binding molecule, the inventors have established a simple cell culture system (aggregate cell cultures) that permits a quantitative evaluation of the effect of various ligands. Hippocampal cells are provided from rat embryos. The cells are grown in a defined medium and dissociated cells are seeded in microtiter plates. After 24 h, the amount of aggregates are counted. Compounds to be tested are added to the cell suspension immediately before seeding of the cells in micro-wells. When NCAM binding compounds are present during the aggregation of cells, smaller, but more numerous cell aggregates are seen when quantified 24 h after seeding of the cells. The inhibiting effect of the ligands results in a blockage of the formation of large aggregates from many small aggregates as the adhesion properties of NCAM are blocked. Thus, small but more numerous cell aggregates are seen in the presence of active ligands. Such an effect is due to the presence of different compounds of the invention during the aggregation of cells. The system allows for the examination of disaggregation of the treated cells.
Dissociated hippocampal cells prepared from rat embryos gestational day 18 were seeded in microwell plates 50,000 cells in 15 μl of medium per well as previously described (Maar et al., 1997)(Rønn et al., 1999). All animals were handled in accordance with the national guidelines for animal welfare. Cells were grown in Neurobasal medium supplemented with B27, 20 mM HEPES, penicillin (100 U/ml), streptomycin (100 μg/ml) and 0.4% w/v bovine serum albumin. After 24 h in culture, the number of aggregates per well was determined. […] After 24 h, images of neurons were captured and analysed by means of computer-assisted microscopy as described (Rønn et al., 2000).
An important function of NCAM is mediation of cell adhesion. […] The effect of NBP10 on cell aggregation was only quantified at low concentrations of the peptide (FIG. 1CD). […] Under these conditions, the number of aggregates could not be quantified. […]

[2] = test system: primary hippocampal neurons; assay: Neurite outgrowth in dissociated cultures of primary hippocampal neurons on plastic; assay type: cell-based, rat; conditions: for concentration of maximal effect on neurite outgrowth: bell shaped dose-response
Procedure: Dissociated hippocampal cells prepared from rat embryos gestational day 18 were seeded in microwell plates 50,000 cells in 15 μl of medium per well as previously described (Maar et al., 1997)(Rønn et al., 1999). All animals were handled in accordance with the national guidelines for animal welfare. Cells were grown in Neurobasal medium supplemented with B27, 20 mM HEPES, penicillin (100 U/ml), streptomycin (100 μg/ml) and 0.4% w/v bovine serum albumin. After 24 h in culture, the number of aggregates per well was determined. For analysis of neurite outgrowth, 5,000 cells/well were seeded in 8 well LabTek Tissue Culture Chamber Slides with a growth surface of Permanox plastic. After 24 h, images of neurons were captured and analysed by means of computer-assisted microscopy as described (Rønn et al., 2000).
The effect of NBP10 in dissociated cultures of primary hippocampal neurons grown on a plastic substratum were examined.

PC12E2 cells = assay: Fura-2 calcium imaging in PC12E2 cells; assay type: cell-based; conditions: lower concentrations than 50 μM
Procedure: The PC12-E2 cell line was a generous gift from Dr. Klaus Seedorf, Hagedorn Research Institute, Denmark. Cells were grown in DMEM supplemented with 5% v/v FBS and 10% v/v horse serum (HS). For calcium imaging, PC12E2 cells were dislodged mechanically by tapping and seeded at a density of 5-30,000 cells/cm^2 in 4 or 8 well LabTek chambered cover-slides (NUNC) with a growth surface of plastic coated with fibronectin (10 μg/ml) and grown for 1 to 5 days. In some cases, neuronal differentiation was induced by changing the medium to DMEM supplemented with 1% v/v FBS, 1% v/v HS and NGF (50 ng/ml) or FGF-2 (10 ng/ml).
Cells were washed in HANK's solution comprising KCl (5.4 mM), NaCl (137 mM), NaHCO3 (2 mM), MgSO4 (0.8 mM), Na2HPO4 (0.27 mM), Glucose (5.6 mM), CaCl2 (1.25 mM), KH2PO4 (0.44 mM) and loaded with fura-2 acetomethyl ester (Fura-2 AM, 2 μM, Molecular Probes, Eugene, Oreg., USA) dissolved in Dimethyl Sulfoxide (DMSO) for 35 min at 20° C. in the dark. Hereafter, cells were washed four times and placed on the stage of an inverted Axiovert 100 TV microscope (Zeiss, Göttingen, Germany) equipped with an oil immersion UV objective (Zeiss Fluar 40×, 1.3 numerical aperture). […] Rmax was determined in situ using Fura-2 AM loaded cells in the presence of ionomycin (5 μM) and high extracellular calcium (10 mM). Values determined were: Rmax 9.0; Rmin 0.68; F380max/F380min 7.0. […]

[3] = target: NCAM on primary hippocampal neurons from rat embryos (rat) (UniProt P13596); assay: cell-based or functional assay
[4] = NBP10d 1 μM, inhibitor concentration not given

**Q.** With ω-conotoxin MVIIA as the molecule, how does the “effect on NBP10-induced neurite outgrowth” value [1] read?
**A.** partial inhibition

**Q.** With COc1cccc(-c2cc(=O)c3ccccc3o2)c1N [PD98059] as the molecule, how does the “effect on NBP10-induced neurite outgrowth” value ([1]; NBP10d 1 μM, inhibitor 10 μM) read?
**A.** partially inhibited

**Q.** How did the “concentration at which cultures had no distinct cell aggregates” value (hippocampal cells) turn out when “AKKMWKKTW [NBP10m, monomeric NBP10 peptide]” was run?
**A.** 200 µM

**Q.** What about the “concentration inducing formation of small but distinct aggregates” value (hippocampal cells) of the same molecule?
**A.** 60 µM

**Q.** And the “effect on cell aggregation” value (hippocampal cells)?
**A.** inhibited cell aggregation

**Q.** And the “shape of dose-response relationship for neurite outgrowth” value [2]?
**A.** bell shaped

**Q.** What about the “concentration of maximal effect on neurite outgrowth” value [2] of the same molecule?
**A.** ~100 µM

**Q.** And the “concentration of maximal effect on neurite outgrowth” value ([2]; listed as monomer)?
**A.** 1.00 µM

**Q.** And the “effect on neurite outgrowth” value ([2]; dose-response, 24 h, plastic substratum)?
**A.** stimulated neurite outgrowth

**Q.** For CCN(CC)CCCCCCCCOC(=O)c1cc(OC)c(OC)c(OC)c1.Cl [TMB-8, 8-(N,N-diethylamino)octyl-3,4,5-trimethoxybenzoate hydrochloride], which “effect on NBP10-induced neurite outgrowth” value [1, 4] is on record?
**A.** complete inhibition

**Q.** Which “effect on intracellular calcium” value (PC12E2 cells) does the source give for “AKKMWKKTW (listed as Rattus rattus) [NBP10]” here?
**A.** only a fraction of the cells showed detectable increases in intracellular calcium

**Q.** For Cc1ccc(-c2nn(C(C)(C)C)c3ncnc(N)c23)cc1 [PP1], which “effect on NBP10-induced neurite outgrowth” value [1, 4] is on record?
**A.** partially inhibited

**Q.** With C[S+]([O-])c1ccc(-c2nc(-c3ccncc3)c(-c3ccc(F)cc3)[nH]2)cc1 (stereo not shown) [SB203580] as the molecule, how does the “effect on NBP10-induced neurite outgrowth” value ([1]; NBP10d 1 μM, inhibitor 1 μM) read?
**A.** partially inhibited

B1: NBP10 peptide dendrimer (four NBP10 monomers coupled to a lysine backbone) (peptide, part only)
chain: AKKMWKKTW
modifications: also: four monomers on lysine dendrimer backbone
**Q.** Which cell aggregation of hippocampal cells, concentration with effect [3] does the source give for B1 here?
**A.** 1 µM and 2 µM

**Q.** What about the neurite outgrowth of dissociated hippocampal neurons, concentration of maximal effect [3] of the same molecule?
**A.** 1 µM

**Q.** And the cell aggregation, potency against the peptide monomer ([3]; scale: times lower concentration than the monomer)?
**A.** 50
